Consider one substance from patent publication US20110105393A1, “METHODS FOR PROMOTING STEM CELL PROLIFERATION AND SURVIVAL” (priority 2007, published 2011).

This assay deals with Notch receptor. Put plainly: Notch receptor cleavage (activation) in NSC cultures. Format: cell-based, mouse. How it is done:
Cell culture: E13.5 cortical embryonic mouse CNS stem cells were grown as previously described (Johe, et al., Genes Dev 10, 3129-40, 1996). Cells were expanded in serum-free DMEM/F12 medium with N2 supplement and FGF2 (20 ng/ml) for 5 days under 5% oxygen conditions and were re-plated fresh or from frozen stocks at 1,000-10,000 cells per cm^2. FGF2 was included throughout the studies, unless otherwise stated. Adult rat (3-6 months old) or adult mouse (2-4 months old) SVZ NSC cultures were grown in the same medium as the fetal cultures.
Pharmacological treatments: Unless otherwise stated, the following concentrations were used: Dll4 and Ang-2 (in vitro, 500 ng/ml; in vivo 12.5 μg as a single injection), FGF2 (in vitro, 20 ng/ml), JAK inhibitor (in vitro, 200 nM; in vivo, 250 ng as a single injection), insulin (in vitro, 25 μg/ml; in vivo, 40 μg as a single injection), DAPT (1 μM), Fluorogold (0.5 μg). For the survival assays, compounds were added daily and Notch ligands every 2 days for the duration of the experiment. For the effects of kinase inhibitors on Notch activation, cells were pre-incubated for 1 h prior to Notch activation.
It was previously shown that in NSCs Notch activation leads to rapid phosphorylation of Akt (Androutsellis-Theotokis, A. et al., Nature 442, 823-6, 2006), a mediator of insulin signalling (Cantley, Science 296, 1655-7, 2002). […] Activation of the Notch receptor by addition of insulin or Dll4 was inhibited by DAPT, a γ-secretase inhibitor that blocks Notch cleavage. […] Insulin maintained STAT3-Ser727 phosphorylation levels, and acutely (1-h) induced it following a 16-h insulin withdrawal phase (FIG. 1c).

As to “insulin: insulin (Sigma, 19278), growth factor”, the Notch activation result (acute (1 h) treatment after insulin withdrawal for 2 days) is “induced Notch activation”. In addition, the “cleavage (activation) of the Notch receptor” value (treatment of NSC cultures) is recorded as “induced cleavage”.
